{"source": "patent US20250332096A1", "about": "“BEVERAGE FORMULATION AND METHOD OF PROMOTING CELLULAR HYDRATION BY ENHANCING INTRACELLULAR PERMEATION” (Eastpond Laboratories Limited, priority 2024, published 2025)", "key": {"[1]": {"assay": "Visual inspection (clarity) of test solutions", "assay_type": "physicochemical", "conditions": "purified water", "experimental": "(§1) 1:1 mol/mol stoichiometry complexes were prepared for the experiment. Nicotinic acid/alpha-CD complex was prepared by dissolving 11.22 g nicotinic acid and 98.63 g alpha-CD (89.66 g on dry basis) in 700 ml purified water. Nicotinamide/alpha-CD complex was prepared by dissolving 5.57 g nicotinamide and 49.3 g alpha-CD (44.4 g on dry basis) in 350 ml purified water and L-arginine/alpha-CD complex was prepared by dissolving 15.18 g L-arginine and 94.26 g alpha-CD (85.69 g on dry basis) in 700 ml purified water. Further, for all the three complexes, the liquid was frozen in dry ice bath and lyophilized. The dry lyophilizate was ground and sieved.\n(§2) Clarity, pH, conductivity, density, viscosity, turbidity, surface tension and osmolality were determined in solutions prepared with purified water. […]"}, "[2]": {"test_system": "C. elegans", "assay": "C. elegans lifespan Test B (Example 6)", "assay_type": "in vivo", "experimental": "C. elegans study performed for the present disclosure is a follow-up and repetition of the observations carried out earlier (referred as Test A here). The results of the current C. elegans study (Test B) were recorded with higher number of animals compared to the Test A (50 worms per treated groups versus 130 worms per groups). Nematodes were maintained and propagated on Nematode Growth Medium—(NGM) containing plates and fed with Escherichia coli OP50 bacteria. The C. elegans strain used in this study is Bristol (N2) as wild-type. FIG. 21, illustrates the lifespan of control and alpha-cyclodextrin-treated worms. The control C. elegans lived on a medium made with tap water. The treated worms were maintained on culture media made with 0.1% alpha-cyclodextrin, 0.1% alpha-CD/nicotinic acid and 0.1% alpha-CD/arginine complex containing tap water."}, "[3]": {"assay": "pH of test solutions", "assay_type": "physicochemical", "conditions": "purified water", "experimental": "as §1, §2"}, "[4]": {"test_system": "C. elegans", "assay": "C. elegans lifespan Test A (observations carried out earlier)", "assay_type": "in vivo", "conditions": "day 15, 0.1%, 50 worms per group", "experimental": "C. elegans study performed for the present disclosure is a follow-up and repetition of the observations carried out earlier (referred as Test A here). The results of the current C. elegans study (Test B) were recorded with higher number of animals compared to the Test A (50 worms per treated groups versus 130 worms per groups). Nematodes were maintained and propagated on Nematode Growth Medium—(NGM) containing plates and fed with Escherichia coli OP50 bacteria. The C. elegans strain used in this study is Bristol (N2) as wild-type."}, "[5]": {"assay": "Conductivity of test solutions", "assay_type": "physicochemical", "conditions": "purified water", "experimental": "as §1, §2"}, "[6]": {"assay": "Density measurements of test solutions", "assay_type": "physicochemical", "conditions": "Tap water", "experimental": "The current study further manifests the density measurements in a cyclodextrin concentration dependent manner.\nWater samples used were bottled water and tap water; wherein the tap water comprises the following impurities and properties: Free active chlorine (0.18 mg/1), Chloride (24 mg/1), Iron (6 μg/1), Manganese (2 μg/1), Nitrate (9 mg/1), Nitrite (<0.03 mg/1), Ammonium (<0.04 mg/1), Hardness of water (122 mg/l CaO), Conductivity (442 μS/cm) and pH 8. Purified water was produced by removal of dissolved ions by Merck/Millipore Synergy® Water Purification System at Cyclolab. The water quality produced Type 1 water (18.2 MΩ·cm at 25° C. ultrapure water) from pretreated water.\nas §1, §2\nHowever, it may not be established exactly which ionic species (Mg2+, Ca2+, Na+) causes this perturbation."}, "[7]": {"assay": "Osmolality of test solutions", "assay_type": "physicochemical", "conditions": "purified water", "experimental": "as §1, §2"}, "[8]": {"test_system": "Wheat seeds (Triticum aestivum)", "assay": "Wheat seed germination", "assay_type": "in vivo", "conditions": "0.5% w/w in USA I water", "experimental": "Wheat seeds (Triticum aestivum) were germinated using USA I, USA II, and BP I waters described for Example 2. Germination rate using un-supplemented (control) water was compared to that with the same water variously supplemented with a cyclodextrin component, and/or a bioactive agent, as an active component of cellular hydration. For each condition, ten seeds were placed in continuous water contact in a Petri-type dish kept at 25 C in 12 hr light/dark cycles. Photometric images were recorded on days 1 to 6 after seeding. The percentage of seeds germinated was calculated and compared as a function of time and of the applied additive concentrations.\nWater samples for seed germination were used alone with no additive, or containing cyclodextrins, or containing clathrate inclusion complexes of cyclodextrin with L-arginine or with nicotinamide (both obtained from Sigma Chemical Co.; St. Louis, MO), or with L-carnitine (from Lonza AG; Switzerland). […] Additive solutions were prepared fresh on the day of germination start.\nParent cyclodextrins α-cyclodextrin (ACD), β-cyclodextrin (BCD), and γ-cyclodextrin (GCD), were obtained from Wacker Chemie (Munich, Germany). The following derivatized cyclodextrins were obtained from Cyclolab Ltd. (Budapest, Hungary): hydroxypropylated-beta-cyclodextrin (DS-3)(HPBCD), carboxymethylated-β-cyclodextrin (DS-3.5)(CMBCD), 2-hydroxy-3-N,N,N-trimethylamino)propyl-β-cyclodextrin chloride (DS-3.6)(QABCD).\nGermination kinetics in control and additive-modified water under identical conditions were quantified as the percentage of the seeds having a sprout. Each determination consisted of 100 seeds for each parameter. Results are reported in Table 5, below, and in FIGS. 11-13. • A) Cyclodextrin/L-Arg Inclusion Complex Increases Seed Germination."}, "[9]": {"test_system": "C. elegans", "assay": "C. elegans longevity in hydration modified water (Example 5)", "assay_type": "in vivo", "conditions": "for Animals alive, % of initial: 0.1% w/w in nutritive media, USA I water", "experimental": "C. elegans nematodes were grown in petri-type dishes containing normal nutrient liquid media prepared alternatively with USA I water (described in Example 2) lacking any further additive component (control) or the same water supplemented with a parent α-, β-, or γ-cyclodextrin, and/or a bioactive agent, as an active component of cellular hydration. Fifty ±3 worms were transferred to each dish. Each condition was repeated in triplicate. Experiments were repeated for USA II and BP I waters described in Example 2.\n• A. Addition of parent α-, β- and γ-cyclodextrins. • B. Addition of L-arginine and nicotinamide. • C. Addition of inclusion complexes of cyclodextrins with L-arginine and nicotinamide."}}}
{"smiles": "OC[C@H]1O[C@@H]2O[C@H]3[C@H](O)[C@@H](O)[C@@H](O[C@H]4[C@H](O)[C@@H](O)[C@@H](O[C@H]5[C@H](O)[C@@H](O)[C@@H](O[C@H]6[C@H](O)[C@@H](O)[C@@H](O[C@H]7[C@H](O)[C@@H](O)[C@@H](O[C@H]1[C@H](O)[C@H]2O)O[C@@H]7CO)O[C@@H]6CO)O[C@@H]5CO)O[C@@H]4CO)O[C@@H]3CO", "note": "[Alpha Cyclodextrin, α-cyclodextrin]", "values": [{"measurement": "Visual Inspection", "setting": "[1]; 0.05%", "value": "clear"}, {"measurement": "Visual Inspection", "setting": "[1]; 0.10%", "value": "clear"}, {"measurement": "Visual Inspection", "setting": "[1]; 1.00%", "value": "clear"}, {"measurement": "Visual Inspection", "setting": "[1]; 2.00%", "value": "clear"}, {"measurement": "Fraction of worms alive", "setting": "[2]; Test B, day 15, 0.1%, 130 worms per group, tap water media", "value": 20, "unit": "%"}, {"measurement": "effect on lifespan", "setting": "[2]; all three studied concentrations (0.05, 0.1, 0.5%)", "value": "significant"}, {"measurement": "average lifespan", "setting": "[2]; control animals 12.33 days", "value": 13.25, "unit": "days"}, {"measurement": "pH", "setting": "[3]; 0.05%", "value": 6.20}, {"measurement": "pH", "setting": "[3]; 0.10%", "value": 6.36}, {"measurement": "pH", "setting": "[3]; 1.00%", "value": 6.55}, {"measurement": "pH", "setting": "[3]; 2.00%", "value": 6.70}, {"measurement": "Fraction of worms alive", "setting": "[4]", "value": 25, "unit": "%"}, {"measurement": "Conductivity", "setting": "[5]; 0.05%", "value": 35.3, "unit": "μS · cm^−1"}, {"measurement": "Conductivity", "setting": "[5]; 0.10%", "value": 39.0, "unit": "μS · cm^−1"}, {"measurement": "Density (at 22 C.)", "setting": "[6]; 0.05%", "value": "0.9992 ± 0.007", "unit": "g/cm³"}, {"measurement": "Density (at 22 C.)", "setting": "[6]; 0.10%", "value": "0.9994 ± 0.004", "unit": "g/cm³"}, {"measurement": "Density (at 22 C.)", "setting": "[6]; 1.00%", "value": "1.002 ± 0.007", "unit": "g/cm³"}, {"measurement": "Density (at 22 C.)", "setting": "[6]; 2.00%", "value": "1.009 ± 0.005", "unit": "g/cm³"}, {"measurement": "Osmolality", "setting": "[7]; 0.05%", "value": 0, "unit": "mOsm/kg"}, {"measurement": "Osmolality", "setting": "[7]; 0.10%", "value": 2, "unit": "mOsm/kg"}, {"measurement": "Osmolality", "setting": "[7]; 2.00%", "value": 18, "unit": "mOsm/kg"}, {"measurement": "wheat seed germination, percentage of the seeds having a sprout", "setting": "[8]; day 0", "value": 0, "unit": "%"}, {"measurement": "wheat seed germination, percentage of the seeds having a sprout", "setting": "[8]; day 1", "value": 11, "unit": "%"}, {"measurement": "wheat seed germination, percentage of the seeds having a sprout", "setting": "[8]; day 2", "value": 18, "unit": "%"}, {"measurement": "wheat seed germination, percentage of the seeds having a sprout", "setting": "[8]; day 3", "value": 68, "unit": "%"}, {"measurement": "wheat seed germination, percentage of the seeds having a sprout", "setting": "[8]; day 4", "value": 92, "unit": "%"}, {"measurement": "number of animals surviving to old ages", "setting": "[9]; after day 15, 0.1% w/w", "value": "significantly increased"}, {"measurement": "Animals alive, % of initial", "setting": "[9]; life span 10 days", "value": "100 % of initial"}, {"measurement": "Animals alive, % of initial", "setting": "[9]; life span 15 days", "value": "20 % of initial"}, {"measurement": "Animals alive, % of initial", "setting": "[9]; life span 18 days", "value": "2 % of initial"}]}
